Key:
Assay type in all cases: biochemical
FGFR2 = FGFR2 (Homo sapiens (Human), UniProt P21802); assay: FGFR enzymatic assay (FRET peptide phosphorylation), FGFR2; conditions: FGFR2 enzyme 0.01 nM, ATP 100 μM
Description: (§1) The inhibitor potency of the exemplified compounds was measured in an enzyme assay that measures peptide phosphorylation using FRET measurements to detect product formation. Inhibitors were serially diluted in DMSO and a volume of 0.5 μL was transferred to the wells of a 384-well plate. For FGFR3, a 10 μL volume of FGFR3 enzyme (Millipore) diluted in assay buffer (50 mM HEPES, 10 mM MgCl2, 1 mM EGTA, 0.01% Tween-20, 5 mM DTT, pH 7.5) was added to the plate and pre-incubated for 5-10 minutes. Appropriate controls (enzyme blank and enzyme with no inhibitor) were included on the plate. […] The plate was incubated at 25° C. for 1 hr. […] The plate was allowed to equilibrate for ˜1 hr before scanning the wells on a PheraStar plate reader (BMG Labtech).
(§2) The enzymes were purchased from Millipore or Invitrogen.
(§3) GraphPad prism3 was used to analyze the data. The IC50 values were derived by fitting the data to the equation for a sigmoidal dose-response with a variable slope. Y=Bottom+(Top−Bottom)/(1+10^((LogIC50−X)*HillSlope)) where X is the logarithm of concentration and Y is the response.

FGFR1 = FGFR1 (Homo sapiens (Human), UniProt P11362); assay: FGFR enzymatic assay (FRET peptide phosphorylation), FGFR1; conditions: FGFR1 enzyme 0.02 nM, ATP 210 μM
FGFR1, sequence (P11362 22-822): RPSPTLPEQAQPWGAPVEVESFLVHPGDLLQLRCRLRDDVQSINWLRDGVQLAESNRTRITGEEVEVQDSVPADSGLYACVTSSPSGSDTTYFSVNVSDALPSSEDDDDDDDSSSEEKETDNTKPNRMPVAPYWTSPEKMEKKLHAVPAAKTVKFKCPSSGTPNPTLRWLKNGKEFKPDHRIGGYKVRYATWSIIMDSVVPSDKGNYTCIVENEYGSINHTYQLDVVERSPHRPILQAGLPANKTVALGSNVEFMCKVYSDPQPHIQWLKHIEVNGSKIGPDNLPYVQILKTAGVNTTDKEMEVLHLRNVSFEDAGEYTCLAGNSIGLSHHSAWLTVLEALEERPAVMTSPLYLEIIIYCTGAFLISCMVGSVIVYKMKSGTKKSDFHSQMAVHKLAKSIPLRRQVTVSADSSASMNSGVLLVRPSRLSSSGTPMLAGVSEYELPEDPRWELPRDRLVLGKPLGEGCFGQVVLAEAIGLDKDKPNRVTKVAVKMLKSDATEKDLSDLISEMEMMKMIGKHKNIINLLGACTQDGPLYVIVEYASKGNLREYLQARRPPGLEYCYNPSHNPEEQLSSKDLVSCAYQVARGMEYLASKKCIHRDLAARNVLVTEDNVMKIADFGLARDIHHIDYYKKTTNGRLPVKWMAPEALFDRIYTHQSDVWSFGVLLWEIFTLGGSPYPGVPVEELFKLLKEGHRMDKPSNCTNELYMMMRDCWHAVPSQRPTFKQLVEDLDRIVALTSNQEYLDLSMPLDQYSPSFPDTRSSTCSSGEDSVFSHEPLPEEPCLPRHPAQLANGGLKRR
Description: as §1, §2, §3

FGFR3 = FGFR3 (Homo sapiens (Human), UniProt P22607); assay: FGFR enzymatic assay (FRET peptide phosphorylation), FGFR3; conditions: FGFR3 enzyme (Millipore), ATP 140 μM
FGFR3, sequence (P22607 23-806): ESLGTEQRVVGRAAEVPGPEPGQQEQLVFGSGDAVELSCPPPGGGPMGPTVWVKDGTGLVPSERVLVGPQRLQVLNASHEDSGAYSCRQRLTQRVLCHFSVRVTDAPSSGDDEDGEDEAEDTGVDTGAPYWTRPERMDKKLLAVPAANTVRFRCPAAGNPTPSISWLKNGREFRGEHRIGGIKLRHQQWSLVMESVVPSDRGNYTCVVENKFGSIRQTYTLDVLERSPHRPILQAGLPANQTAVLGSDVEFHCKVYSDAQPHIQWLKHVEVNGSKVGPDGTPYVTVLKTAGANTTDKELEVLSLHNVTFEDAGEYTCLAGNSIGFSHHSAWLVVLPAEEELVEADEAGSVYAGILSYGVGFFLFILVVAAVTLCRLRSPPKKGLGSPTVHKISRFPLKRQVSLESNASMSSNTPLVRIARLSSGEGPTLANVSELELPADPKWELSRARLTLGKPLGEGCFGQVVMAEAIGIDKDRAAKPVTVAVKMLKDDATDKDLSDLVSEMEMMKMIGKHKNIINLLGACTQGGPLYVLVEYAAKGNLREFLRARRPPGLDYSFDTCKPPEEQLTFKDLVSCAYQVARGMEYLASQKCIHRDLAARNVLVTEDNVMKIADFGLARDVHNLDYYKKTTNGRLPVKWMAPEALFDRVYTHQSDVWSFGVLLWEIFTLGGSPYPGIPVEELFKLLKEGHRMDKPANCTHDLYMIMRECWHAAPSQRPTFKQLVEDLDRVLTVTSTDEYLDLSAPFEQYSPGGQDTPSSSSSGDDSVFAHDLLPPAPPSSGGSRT
Description: as §1, §3

Measured: IC50

FGFR2, sequence (P21802 22-821): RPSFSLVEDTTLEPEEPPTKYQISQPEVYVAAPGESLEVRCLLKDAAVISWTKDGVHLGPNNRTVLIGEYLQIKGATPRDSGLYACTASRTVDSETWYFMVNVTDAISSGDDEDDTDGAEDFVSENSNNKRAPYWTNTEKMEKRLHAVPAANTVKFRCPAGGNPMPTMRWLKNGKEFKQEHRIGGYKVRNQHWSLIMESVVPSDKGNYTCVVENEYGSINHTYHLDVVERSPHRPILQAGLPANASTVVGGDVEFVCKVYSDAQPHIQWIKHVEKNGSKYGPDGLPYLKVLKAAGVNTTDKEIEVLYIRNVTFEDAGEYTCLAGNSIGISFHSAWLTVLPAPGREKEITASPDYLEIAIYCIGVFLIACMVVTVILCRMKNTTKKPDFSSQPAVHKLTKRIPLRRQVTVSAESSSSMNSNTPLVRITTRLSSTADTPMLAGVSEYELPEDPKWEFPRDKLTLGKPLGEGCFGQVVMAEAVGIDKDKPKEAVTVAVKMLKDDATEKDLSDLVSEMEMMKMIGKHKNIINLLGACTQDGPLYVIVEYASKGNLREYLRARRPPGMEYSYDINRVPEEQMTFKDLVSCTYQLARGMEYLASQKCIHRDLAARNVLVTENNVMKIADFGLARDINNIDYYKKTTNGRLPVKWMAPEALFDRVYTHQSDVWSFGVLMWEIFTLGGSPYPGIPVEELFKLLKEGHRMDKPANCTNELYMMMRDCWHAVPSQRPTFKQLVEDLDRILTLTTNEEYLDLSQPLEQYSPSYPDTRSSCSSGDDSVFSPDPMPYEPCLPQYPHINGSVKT

CNC(=O)c1cc2c3c(cnc2[nH]1)CN(c1cc(OC)cc(OC)c1Cl)C(=O)N3C [Example 23, 3-(2-Chloro-3,5-dimethoxyphenyl)-N,1-dimethyl-2-oxo-2,3,4,7-tetrahydro-1H-pyrrolo[3′,2′:5,6]pyrido[4,3-d]pyrimidine-8-carboxamide]
< 100 nM: all assays above

COc1cc(OC)c(Cl)c(N2Cc3cnc4[nH]c(C(=O)N(C)C)cc4c3N(C)C2=O)c1 [Example 24, 3-(2-Chloro-3,5-dimethoxyphenyl)-N,N,1-trimethyl-2-oxo-2,3,4,7-tetrahydro-1H-pyrrolo[3′,2′:5,6]pyrido[4,3-d]pyrimidine-8-carboxamide]
< 100 nM: all assays above

COc1cc(OC)c(Cl)c(N2Cc3cnc4[nH]c(C(=O)N5CC(O)C5)cc4c3N(C)C2=O)c1 [Example 25, 3-(2-Chloro-3,5-dimethoxyphenyl)-8-[(3-hydroxyazetidin-1-yl)carbonyl]-1-methyl-1,3,4,7-tetrahydro-2H-pyrrolo[3′,2′:5,6]pyrido[4,3-d]pyrimidin-2-one]
< 100 nM: all assays above

COc1cc(OC)c(Cl)c(N2Cc3cnc4[nH]c(C(=O)N5CCN(C)CC5)cc4c3N(C)C2=O)c1 [Example 26, 3-(2-Chloro-3,5-dimethoxyphenyl)-1-methyl-8-[(4-methylpiperazin-1-yl)carbonyl]-1,3,4,7-tetrahydro-2H-pyrrolo[3′,2′:5,6]pyrido[4,3-d]pyrimidin-2-one]
< 100 nM: all assays above

COc1cc(OC)c(F)c(N2Cc3cnc4[nH]c(C(=O)NC5CC5)cc4c3N(C)C2=O)c1 [Example 27, N-Cyclopropyl-3-(2-fluoro-3,5-dimethoxyphenyl)-1-methyl-2-oxo-2,3,4,7-tetrahydro-1H-pyrrolo[3′,2′:5,6]pyrido[4,3-d]pyrimidine-8-carboxamide]
< 100 nM: all assays above

COc1cc(OC)c(F)c(N2Cc3cnc4[nH]c(C(=O)N5CC(O)C5)cc4c3N(C)C2=O)c1 [Example 28, 3-(2-Fluoro-3,5-dimethoxyphenyl)-8-[(3-hydroxyazetidin-1-yl)carbonyl]-1-methyl-1,3,4,7-tetrahydro-2H-pyrrolo[3′,2′:5,6]pyrido[4,3-d]pyrimidin-2-one]
< 100 nM: all assays above

COc1cc(OC)c(F)c(N2Cc3cnc4[nH]c(C(=O)N5CCC(C#N)C5)cc4c3N(C)C2=O)c1 (stereo not drawn) [Example 29, 1-{[3-(2-Fluoro-3,5-dimethoxyphenyl)-1-methyl-2-oxo-2,3,4,7-tetrahydro-1H-pyrrolo[3′,2′:5,6]pyrido[4,3-d]pyrimidin-8-yl]carbonyl}pyrrolidine-3-carbonitrile]
< 100 nM: all assays above

COc1cc(OC)c(F)c(N2Cc3cnc4[nH]c(C(=O)N5CCN(C)CC5)cc4c3N(C)C2=O)c1 [Example 30, 3-(2-Fluoro-3,5-dimethoxyphenyl)-1-methyl-8-[(4-methylpiperazin-1-yl)carbonyl]-1,3,4,7-tetrahydro-2H-pyrrolo[3′,2′:5,6]pyrido[4,3-d]pyrimidin-2-one]
< 100 nM: all assays above

COc1cc(OC)c(F)c(N2Cc3cnc4[nH]c(C(=O)N5CCCC(O)C5)cc4c3N(C)C2=O)c1 (stereo not drawn) [Example 31, 3-(2-Fluoro-3,5-dimethoxyphenyl)-8-[(3-hydroxypiperidin-1-yl)carbonyl]-1-methyl-1,3,4,7-tetrahydro-2H-pyrrolo[3′,2′:5,6]pyrido[4,3-d]pyrimidin-2-one]
< 100 nM: all assays above

COc1cc(OC)c(F)c(N2Cc3cnc4[nH]c(C(=O)N(C)C)cc4c3N(C)C2=O)c1 [Example 34, 3-(2-Fluoro-3,5-dimethoxyphenyl)-N,N,1-trimethyl-2-oxo-2,3,4,7-tetrahydro-1H-pyrrolo[3′,2′:5,6]pyrido[4,3-d]pyrimidine-8-carboxamide]
< 100 nM: all assays above

COc1cc(OC)c(F)c(N2Cc3cnc4[nH]c(C(=O)N(C)C)cc4c3N(C)C2=O)c1F [Example 35, 3-(2,6-Difluoro-3,5-dimethoxyphenyl)-N,N,1-trimethyl-2-oxo-2,3,4,7-tetrahydro-1H-pyrrolo[3′,2′:5,6]pyrido[4,3-d]pyrimidine-8-carboxamide]
< 100 nM: all assays above

COc1cc(OC)c(F)c(N2Cc3cnc4c(c3N(C)C2=O)CC(=O)N4)c1F [Example 37, 3-(2,6-Difluoro-3,5-dimethoxyphenyl)-1-methyl-3,4,7,9-tetrahydro-1H-pyrrolo[3′,2′:5,6]pyrido[4,3-d]pyrimidine-2,8-dione]
< 100 nM: all assays above

COc1cc(OC)c(F)c(N2Cc3cnc4ccsc4c3N(C)C2=O)c1F [Example 38, 3-(2,6-Difluoro-3,5-dimethoxyphenyl)-1-methyl-3,4-dihydrothieno[2′,3′:5,6]pyrido[4,3-d]pyrimidin-2(1H)-one]
< 100 nM: all assays above

COc1cc(OC)c(F)c(N2Cc3cnc4[nH]c(C5CCOCC5)cc4c3N(C)C2=O)c1F [Example 39, 3-(2,6-Difluoro-3,5-dimethoxyphenyl)-1-methyl-8-(tetrahydro-2H-pyran-4-yl)-1,3,4,7-tetrahydro-2H-pyrrolo[3′,2′:5,6]pyrido[4,3-d]pyrimidin-2-one]
< 100 nM: all assays above

COc1cc(OC)c(F)c(N2Cc3cnc4[nH]c(C(=O)N5CCN(C)CC5)cc4c3N(C)C2=O)c1F [Example 40, 3-(2,6-Difluoro-3,5-dimethoxyphenyl)-1-methyl-8-[(4-methylpiperazin-1-yl)carbonyl]-1,3,4,7-tetrahydro-2H-pyrrolo[3′,2′:5,6]pyrido[4,3-d]pyrimidin-2-one]
< 100 nM: all assays above

COc1cc(OC)c(F)c(N2Cc3cnc4[nH]c(C(=O)N5CCOCC5)cc4c3N(C)C2=O)c1F [Example 41, 3-(2,6-Difluoro-3,5-dimethoxyphenyl)-1-methyl-8-(morpholin-4-ylcarbonyl)-1,3,4,7-tetrahydro-2H-pyrrolo[3′,2′:5,6]pyrido[4,3-d]pyrimidin-2-one]
< 100 nM: all assays above

COc1cc(OC)c(F)c(N2Cc3cnc4[nH]c(C(=O)N5CCC(F)(F)CC5)cc4c3N(C)C2=O)c1F [Example 42, 3-(2,6-Difluoro-3,5-dimethoxyphenyl)-8-[(4,4-difluoropiperidin-1-yl)carbonyl]-1-methyl-1,3,4,7-tetrahydro-2H-pyrrolo[3′,2′:5,6]pyrido[4,3-d]pyrimidin-2-one]
< 100 nM: all assays above

COc1cc(OC)c(F)c(N2Cc3cnc4[nH]cc(-c5cnn(C)c5)c4c3N(C)C2=O)c1F [Example 43, 3-(2,6-Difluoro-3,5-dimethoxyphenyl)-1-methyl-9-(1-methyl-1H-pyrazol-4-yl)-1,3,4,7-tetrahydro-2H-pyrrolo[3′,2′:5,6]pyrido[4,3-d]pyrimidin-2-one]
< 100 nM: all assays above

COc1cc(OC)c(F)c(N2Cc3cnc4[nH]ccc4c3N(CCO)C2=O)c1F [Example 44, 3-(2,6-Difluoro-3,5-dimethoxyphenyl)-1-(2-hydroxyethyl)-1,3,4,7-tetrahydro-2H-pyrrolo[3′,2′:5,6]pyrido[4,3-d]pyrimidin-2-one]
< 100 nM: all assays above

COc1cc(OC)c(F)c(N2Cc3cnc4[nH]ccc4c3N(C3CC3)C2=O)c1F [Example 45, 1-Cyclopropyl-3-(2,6-difluoro-3,5-dimethoxyphenyl)-1,3,4,7-tetrahydro-2H-pyrrolo[3′,2′:5,6]pyrido[4,3-d]pyrimidin-2-one]
< 100 nM: all assays above

COc1cc(OC)c(F)c(N2Cc3cnc4[nH]ccc4c3N(C3CCOCC3)C2=O)c1F [Example 46, 3-(2,6-Difluoro-3,5-dimethoxyphenyl)-1-(tetrahydro-2H-pyran-4-yl)-1,3,4,7-tetrahydro-2H-pyrrolo[3′,2′:5,6]pyrido[4,3-d]pyrimidin-2-one]
< 100 nM: all assays above

From US9611267B2, “Substituted tricyclic compounds as FGFR inhibitors” (Incyte Corporation, priority 2012, dated 2017)
